Values after ≈ are worked out from the molar mass of the structure shown. Active and inactive are the calls of the source. The rule behind the calls is not given here.
Tests used:
Type in all cases: functional, cell-based
[1] = system: RAW264.7; experiment: Antiinflammatory activity against LPS-stimulated mouse RAW264.7 cells assessed as reduction in NO production
[2] = Antiinflammatory activity against LPS-stimulated dog DH82 cells assessed as reduction in NO production; conditions: Canis lupus familiaris
[3] = system: RAW264.7; experiment: Antiinflammatory activity against LPS-stimulated mouse RAW264.7 cells assessed as reduction in iNOS mRNA expression level at 20 uM by qRT-PCR analysis
[4] = system: DH82; experiment: Antiinflammatory activity against LPS-stimulated dog DH82 cells assessed as reduction in iNOS mRNA expression level at 20 uM by qRT-PCR analysis; conditions: Canis lupus familiaris
[5] = system: RAW264.7; experiment: Antiinflammatory activity against mouse RAW264.7 cells assessed as reduction in NO production compound photoirradiated using 50 kGy gamma-ray; conditions: RAW264.7, light or radiation study

| SMILES | IC50 [1] [µM] | IC50 [2] [µM] | IC50 [5] [mg/L] | Activity [3] | Activity [4] |
| --- | --- | --- | --- | --- | --- |
| O=C1C[C@](CO)(c2ccccc2)Oc2cc3c(c(O)c21)OOC3 | > 200 | > 200 |  |  |  |
| COc1c(O)cc2oc(-c3ccccc3)cc(=O)c2c1O [OROXYLIN A] | 48.9 | 50.6 |  |  |  |
| O=C(O)[C@H]1O[C@@H](Oc2cc3oc(-c4ccccc4)cc(=O)c3c(O)c2O)[C@H](O)[C@@H](O)[C@@H]1O [BAICALIN] | 157 | > 200 | 35.2 (≈ 78.9 µM) | Active | Active |
| N=C(N)NN [PIMAGEDINE] | 24.5 | 21 |  |  |  |
| O=c1cc(-c2ccccc2)oc2cc(O)c(O)c(O)c12 [BAICALEIN] | 30.4 | 31.2 |  |  |  |

Now from value to molecule, other results behind:

| IC50 [1] [µM] | IC50 [2] [µM] | IC50 [5] [mg/L] | SMILES | Activity [3] | Activity [4] |
| --- | --- | --- | --- | --- | --- |
| 22.7 | 24.9 |  | O=C1C[C@](CO)(c2ccccc2)Oc2cc(O[C@@H]3O[C@H](C(=O)O)[C@@H](O)[C@H](O)[C@H]3O)c(O)c(O)c21 | Active | Active |
| 18.9 | 19.1 |  | O=C1C[C@@](CO)(c2ccccc2)Oc2cc(O[C@@H]3O[C@H](C(=O)O)[C@@H](O)[C@H](O)[C@H]3O)c(O)c(O)c21 | Active | Active |
| 68 | 57.5 |  | O=C(O)[C@H]1O[C@@H](Oc2cc3c(c(O)c2O)C(=O)[C@@H](CO)[C@](CO)(c2ccccc2)O3)[C@H](O)[C@@H](O)[C@@H]1O |  |  |

Reference: ChEMBL document CHEMBL5329179, “Inhibitory effect of γ-ray-modified hydroxymethylated baicalins on NO production” (Bioorg Med Chem Lett, 2023)
